Experimental data: BindingDB's records for doi:10.1016/j.bmcl.2005.01.004 (Wyeth-Ayerst Research, 2005)

Target: Proto-oncogene tyrosine-protein kinase Src (Homo sapiens, UniProt P12931)
Experiment: Homogeneous Time-resolved Fluorescence (HTRF) Assay
Method: Kinase assays were performed using the europium/APC detection format (LANCE, Perkin Elmer). HTRF is based on the proximity of europium cryptate (donor fluorophore)-labeled antiphosphotyrosine and streptavidin labeled with APC(allophycocyanin), which have been brought together by a binding reaction.

Chain of Proto-oncogene tyrosine-protein kinase Src (P12931 2-536 limits assumed): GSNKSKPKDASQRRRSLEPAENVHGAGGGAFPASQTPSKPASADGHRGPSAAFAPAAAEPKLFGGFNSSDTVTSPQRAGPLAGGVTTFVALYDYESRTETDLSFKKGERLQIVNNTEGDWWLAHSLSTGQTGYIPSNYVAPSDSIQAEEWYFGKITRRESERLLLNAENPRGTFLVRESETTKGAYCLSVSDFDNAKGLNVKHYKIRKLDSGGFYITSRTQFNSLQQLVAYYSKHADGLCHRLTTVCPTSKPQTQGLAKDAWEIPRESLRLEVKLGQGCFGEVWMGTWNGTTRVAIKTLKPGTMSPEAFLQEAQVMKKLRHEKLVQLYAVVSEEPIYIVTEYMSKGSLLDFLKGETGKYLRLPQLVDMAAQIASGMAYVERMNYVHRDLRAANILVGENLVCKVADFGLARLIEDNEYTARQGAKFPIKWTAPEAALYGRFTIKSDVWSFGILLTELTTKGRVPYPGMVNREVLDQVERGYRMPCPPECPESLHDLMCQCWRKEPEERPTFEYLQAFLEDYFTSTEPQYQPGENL

| SMILES | IC50 |
| --- | --- |
| COc1cc2c(Nc3cc(OC)c(OC)c(OC)c3)c(C#N)cnc2cc1/C=C/c1cc[n+]([O-])cc1 [4-[(E)-2-{3-cyano-6-methoxy-4-[(3,4,5-trimethoxyphenyl)amino]quinolin-7-yl}ethenyl]-1-oxidopyridin-1-ium] | 11 nM |
| N#Cc1cnc2cc(/C=C/c3ccncc3)ccc2c1NCc1cc(Cl)cc(Cl)c1 [4-{[(3,5-dichlorophenyl)methyl]amino}-7-[(E)-2-(pyridin-4-yl)ethenyl]quinoline-3-carbonitrile] | 1000 nM |
